We go through eight compounds from PubChem BioAssay (NCI).

Some test systems named below: CAKI-1 renal; CCRF-CEM leukemia; HCC-2998 colon; HCT-116 colon; HS 578T breast; MALME-3M melanoma; PC-3 prostate; RXF 393 renal; SF-268 CNS; SK-MEL-2 melanoma.
Holding throughout (assay): NCI anticancer screen, dose series, 48 h

Several values for one entry are separate records, joined by “and”; a condition that tells them apart may be missing. Equal values may be shown once.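 Step 1: Grow cells in 96-well plates. Step 2: Expose to compound for 48 hours at 5 concentrations. Step 3: Interpolate endpoints linearly; if unreached, use highest concentration. GI50 = concentration required for 50% inhibition of growth. TGI denotes the concentration required for complete inhibition of growth.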 Where only a bound is given, the exact number is not on record here.

As to `O=c1c(-c2nc3ccccc3[nH]2)cc2ccccc2n1Cc1cn(Cc2ccc(F)cc2)nn1`, the GI50 was 0.246 µM in the assay on CAKI-1 renal; 0.135 µM in the assay on CCRF-CEM leukemia; 0.203 µM with HCC-2998 colon; 0.0442 µM with HCT-116 colon; 0.0546 µM in the assay on HS 578T breast; 0.213 µM with MALME-3M melanoma. In addition, the GI50 was 0.153 µM with PC-3 prostate, 0.125 µM with RXF 393 renal, 0.259 µM with SF-268 CNS and 0.348 µM with SK-MEL-2 melanoma. Further, the TGI in the assay with CAKI-1 renal was greater than 100 µM; in the assay with CCRF-CEM leukemia, greater than 100 µM; in the assay with HCC-2998 colon it was 3.31 µM; in the assay with HCT-116 colon it was 5.56 µM; with HS 578T breast, 1.18 µM; in the assay on MALME-3M melanoma, 66.4 µM. In addition, the TGI in the assay with PC-3 prostate is greater than 100 µM; with RXF 393 renal, 0.484 µM; with SF-268 CNS, 57.6 µM; in the assay with SK-MEL-2 melanoma, 10.2 µM.

On to `COc1cc(/C=C/C(=O)c2ccc(SC)cc2)cc(OC)c1OC`, for which the GI50 was 16.1 µM in the assay on CAKI-1 renal; 3.37 µM with CCRF-CEM leukemia; 18 µM in the assay with HCC-2998 colon; 3.3 µM in the assay on HCT-116 colon; 12.3 µM in the assay with HS 578T breast; 6.31 µM with MALME-3M melanoma. Moreover, the GI50 was 14.2 µM in the assay with PC-3 prostate, 2.62 µM with RXF 393 renal, 16 µM in the assay on SF-268 CNS and 17 µM in the assay with SK-MEL-2 melanoma. For the same compound, the TGI in the assay with CAKI-1 renal was determined as 32.2 µM; in the assay on CCRF-CEM leukemia, 21.1 µM; with HCC-2998 colon it was 33.2 µM; in the assay on HCT-116 colon, 13.7 µM; in the assay on HS 578T breast, 37 µM; with MALME-3M melanoma, 26.1 µM. Also, the TGI in the assay on PC-3 prostate is 95.3 µM; in the assay on RXF 393 renal it was 7.01 µM; with SF-268 CNS, 37.8 µM; in the assay on SK-MEL-2 melanoma, 31.6 µM.

With `N[C@@H](Cc1ccc(N(CCCl)CCCl)cc1)C(=O)O`, the GI50 in the assay with CAKI-1 renal is 2.21 µM and 3.86 µM; with CCRF-CEM leukemia, 2.47 µM and 1.96 µM; with HCC-2998 colon, 75.5 µM and 22.1 µM; in the assay with HCT-116 colon it was 25.4 µM and 20.9 µM; with MALME-3M melanoma, 13.7 µM and 18.3 µM; with PC-3 prostate, 32.5 µM. Moreover, the GI50 in the assay on RXF 393 renal is 16.9 µM and 15.9 µM; in the assay with SF-268 CNS, 7.08 µM and 5.64 µM; in the assay on SK-MEL-2 melanoma, 17.4 µM. The TGI in the assay with CAKI-1 renal is 8.9 µM and 25.4 µM and 67.6 µM; in the assay on CCRF-CEM leukemia, 78.9 µM and > 96.4 µM and 66.8 µM; in the assay with HCC-2998 colon it was > 100 µM and 62.2 µM and 95.4 µM; in the assay on HCT-116 colon, > 100 µM and 51.1 µM and 137 µM; with HS 578T breast it was > 100 µM and 165 µM; in the assay on MALME-3M melanoma it was 30.5 µM and 35.3 µM and 66 µM. The TGI was > 100 µM and 129 µM in the assay with PC-3 prostate; 47.1 µM and 32.9 µM and 69.9 µM with RXF 393 renal; > 100 µM and 52.2 µM and 148 µM in the assay on SF-268 CNS; 33.5 µM and 112 µM in the assay with SK-MEL-2 melanoma.

Consider `COc1ccc(-c2nn(C(=O)c3cc(OC)c(OC)c(OC)c3)c3cc(N)ccc23)cc1`, for which the GI50 in the assay on CAKI-1 renal was 0.0145 µM; with CCRF-CEM leukemia, 0.0249 µM; in the assay on HCC-2998 colon, 0.0349 µM; in the assay with HCT-116 colon, less than 0.01 µM; with HS 578T breast, less than 0.0179 µM; with MALME-3M melanoma it was 2.03 µM. For the same compound, the GI50 in the assay on PC-3 prostate was less than 0.0241 µM; with RXF 393 renal, less than 0.01 µM; in the assay on SF-268 CNS, less than 0.0148 µM; in the assay on SK-MEL-2 melanoma, 2.55 µM. Moreover, the TGI in the assay with CAKI-1 renal is 8.39 µM; in the assay on CCRF-CEM leukemia, 14.3 µM; in the assay on HCC-2998 colon, 3.79 µM; in the assay on HCT-116 colon it was 1.45 µM; in the assay on HS 578T breast it was 39 µM; in the assay on MALME-3M melanoma, 14.8 µM. The TGI with PC-3 prostate was greater than 30.3 µM; with RXF 393 renal, 3.98 µM; in the assay on SF-268 CNS it was 4.43 µM; in the assay on SK-MEL-2 melanoma, 27.6 µM.

Regarding `CCCCCCOc1ccc(/C=N/Nc2cc(C)nc3ccc(Br)cc23)cc1`, the GI50 in the assay with CAKI-1 renal was 1.66 µM; in the assay on CCRF-CEM leukemia, 1.71 µM; in the assay on HCC-2998 colon it was 2.03 µM; in the assay with HCT-116 colon, 0.85 µM; with HS 578T breast, 2.16 µM; in the assay with MALME-3M melanoma, 1.87 µM. The GI50 is 1.65 µM in the assay with PC-3 prostate, 1.55 µM with RXF 393 renal, 2.07 µM with SF-268 CNS and 1.78 µM with SK-MEL-2 melanoma. Besides, the TGI in the assay on CAKI-1 renal came out at 3.04 µM; in the assay with CCRF-CEM leukemia, 3.97 µM; in the assay on HCC-2998 colon it was 3.56 µM; in the assay with HCT-116 colon, 2.11 µM; with HS 578T breast, 4.49 µM; in the assay on MALME-3M melanoma, 3.38 µM. In addition, the TGI in the assay on PC-3 prostate was 3.23 µM; with RXF 393 renal it was 2.95 µM; with SF-268 CNS it was 4.24 µM; in the assay on SK-MEL-2 melanoma it was 3.32 µM.

Take `c1ccc(Oc2cnc3ccccc3n2)cc1`: the GI50 in the assay with CAKI-1 renal was 10.2 µM; with CCRF-CEM leukemia, greater than 100 µM; in the assay on HCC-2998 colon, greater than 100 µM; in the assay on HCT-116 colon, greater than 100 µM; in the assay on HS 578T breast, 30.3 µM; in the assay with MALME-3M melanoma, greater than 100 µM. In addition, the GI50 in the assay with PC-3 prostate was greater than 100 µM; with RXF 393 renal, 31.9 µM; in the assay on SF-268 CNS, 64 µM; in the assay on SK-MEL-2 melanoma, greater than 100 µM. Further, the TGI in the assay with CAKI-1 renal was 50 µM; with CCRF-CEM leukemia, greater than 100 µM; in the assay with HCC-2998 colon, greater than 100 µM; with HCT-116 colon, greater than 100 µM; with HS 578T breast it was greater than 100 µM; with MALME-3M melanoma, greater than 100 µM. The TGI in the assay with PC-3 prostate, in the assay on RXF 393 renal, in the assay with SF-268 CNS and in the assay on SK-MEL-2 melanoma was greater than 100 µM each time.

For the compound `COc1nc(C(Cl)(Cl)Cl)c(Cl)c(OC)c1Cl`, the GI50 in the assay with CAKI-1 renal was greater than 46 µM; with CCRF-CEM leukemia it was greater than 45.5 µM; in the assay with MALME-3M melanoma it was greater than 45.4 µM; in the assay on SF-268 CNS it was greater than 52.2 µM. The TGI in the assay on CAKI-1 renal was > 72.9 µM and 74.6 µM; in the assay on CCRF-CEM leukemia it was > 64.4 µM and 121 µM; in the assay on HCC-2998 colon, > 58.3 µM and 95 µM; in the assay with HCT-116 colon, > 57.8 µM and 78.3 µM; in the assay on HS 578T breast, 75.5 µM; in the assay on MALME-3M melanoma, > 65.8 µM and 64.4 µM. Besides, the TGI with PC-3 prostate is 73.6 µM; in the assay with RXF 393 renal, > 55.1 µM and 71.8 µM; in the assay with SF-268 CNS, > 92.1 µM and 72.2 µM; in the assay on SK-MEL-2 melanoma, > 31.6 µM and 70.8 µM.

Turning to `Nc1ncnc2c1c(-c1ccc(Oc3ccccc3)cc1)nn2C[C@H]1SSC[C@H]1O`, the GI50 with CAKI-1 renal was 0.938 µM; with CCRF-CEM leukemia, 0.054 µM; in the assay with HCC-2998 colon it was 0.388 µM; in the assay with HCT-116 colon, 0.0489 µM; in the assay on HS 578T breast, 1.88 µM; in the assay with MALME-3M melanoma it was 0.0815 µM. For the same compound, the values for the GI50 in the assay with PC-3 prostate, in the assay on RXF 393 renal and in the assay on SK-MEL-2 melanoma were 2.05 µM, 1.35 µM and 0.16 µM, respectively. In addition, the TGI with CAKI-1 renal was 2.85 µM; in the assay with CCRF-CEM leukemia, greater than 100 µM; in the assay with HCC-2998 colon, 2.03 µM; in the assay with HCT-116 colon, 1.21 µM; in the assay on HS 578T breast it was 8.7 µM; with MALME-3M melanoma, 0.332 µM. For the same compound, the TGI with PC-3 prostate came to 11.8 µM; with RXF 393 renal, 4.31 µM; in the assay on SK-MEL-2 melanoma it was 0.435 µM.
